From PMC11161032 (ACS infectious diseases, 2023) come the findings set out here.

One test deals with M49L M^pro. Format: biochemical, SARS-CoV-2.
The test system of a further test is T25E M^pro. Format: biochemical, SARS-CoV-2.

As to `Cn1cnc(Cn2c(=O)[nH]/c(=N\c3cc4cn(C)nc4cc3Cl)n(Cc3cc(F)c(F)cc3F)c2=O)n1` [ensitrelvir], the “increase of Ki compared to wild-type” value is 40 fold with M49L M^pro and 300 fold with T25E M^pro.

Consider `CC(C)(C)[C@H](NC(=O)C(F)(F)F)C(=O)N1C[C@H]2[C@@H]([C@H]1C(=O)N[C@H](C#N)C[C@@H]1CCNC1=O)C2(C)C` [nirmatrelvir], for which the “increase of Ki compared to wild-type” value in the test on M49L M^pro and with T25E M^pro was “minimal to no observed impact on Ki” each time.
